Here are results for ten molecules from patent publication US20160046618A1, “Cyclopropyl Fused Thiazin-2-Amine Compounds as Beta-Secretase Inhibitors and Methods of Use” (AMGEN INC., priority 2014, published 2016).

The structures appear in SMILES notation.

The subject of assay [1] is Aβ 40 in rat brain. Nature of the assay: In vivo inhibition of beta-secretase: Aβ40 reduction in rat brain. The settings on record: after 4 h. The text has this:
(§1) In Vivo Inhibition of Beta-Secretase
Several animal models, including mouse, rat, dog, and monkey, may be used to screen for inhibition of beta-secretase activity in vivo following administration of a test compound sample. Animals used in this invention can be wild type, transgenic, or gene knockout animals. […] One to twenty-four hours following the administration of compound, animals are sacrificed, and brains as well as cerebrospinal fluid (CSF) and plasma are removed for analysis of A-beta levels and drug or test compound concentrations (Dovey et al., 2001, Journal of Neurochemistry, 76,173-181) Beginning at time 0, animals are administered by oral gavage, or other means of delivery such as intravenous injection, an inhibitory test compound of up to 100 mg/kg in a standard, conventional formulation, such as 2% hydroxypropyl methylcellulose, 1% Tween80. A separate group of animals receive 2% hydroxypropyl methylcellulose, 1% Tween80 alone, containing no test compound, and serve as a vehicle-control group. At the end of the test period, animals are sacrificed and brain tissues, plasma or cerebrospinal fluid are collected. […] Homogenates are centrifuged at 355,000 g, 4° C. for 30 minutes. CSF or brain supernatants are then analyzed for the presence of A-beta peptide by specific sandwich ELISA assays based on ECL (Electrochemiluminescence) technology. For example, rat Abeta40 is measured using biotinylated-4G8 (Signet) as a capture antibody and Fab40 (an in-house antibody specific to the C-terminal of Abeta40) as a detection antibody.
(§2) Actual vehicles used: Oral: 2% HPMC, 1% Tween80, pH 2.2

Assay [2] has as its system Aβ40 in conditioned medium of cells stably expressing Amyloid Precursor Protein (APP). As to the kind of experiment: In vitro BACE-1 cell-based assay (Aβ40 sandwich ELISA). Particulars: BACE1 cell-based assay; read-out: IC50 IP (μM) BACE1 cell. The gist of the method:
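APP-stable cells, pre-cultured 24 h at 37° C in DMEM/10% FBS, were treated 24 h with compound in a 10-point series starting at 100 μM or 10 μM (0.1% DMSO final). Secreted Aβ40 in conditioned medium was measured by pAb40/biotin-6E10 sandwich ELISA with Europium time-resolved fluorescence; IC50 from percent inhibition versus concentration.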

In assay [3] the target is human recombinant BACE1 (Homo sapiens (Human), UniProt P56817). Nature of the assay: In vitro enzymatic BACE1 FRET assay. Particulars: BACE1 FRET enzyme assay; read-out: IC50 IP (μM) BACE1 enzyme. It is filed as biochemical. The gist of the method: (§3)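 FRET cleavage assay using Ni-NTA-purified recombinant protease and 50 nM quenched peptide substrate, 1 h. Stopped by neutralising with Tris; fluorescence at 488/590 nm.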

In assay [4] the target is human recombinant BACE2 (Homo sapiens (Human), UniProt Q9Y5Z0). Nature of the assay: In vitro enzymatic BACE2 FRET assay. The class given is biochemical. The settings on record: BACE2 FRET enzyme assay; read-out: IC50 IP (μM) BACE2 enzyme. Put shortly: as §3
Assay [5] concerns the target Recombinant Cat D (Homo sapiens (Human), UniProt P07339). As to the kind of experiment: In vitro enzymatic Cathepsin D (Cat D) FRET assay. It is filed as biochemical. The settings on record: Cathepsin D FRET enzyme assay; read-out: IC50 IP (μM) CatD. Put shortly: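 Cleavage of a 20 nM FRET peptide by CHO-derived Cat D over 1 h at pH 3.5 (citrate buffer with CHAPS, 10% DMSO final). Endpoint fluorescence is read after Tris quench.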

In assay [6] the test system is Aβ 40 in rat CSF. Nature of the assay: In vivo inhibition of beta-secretase: Aβ40 reduction in rat CSF. The settings on record: after 4 h.
Excerpt: as §1
Several animal models, including mouse, rat, dog, and monkey, may be used to screen for inhibition of beta-secretase activity in vivo following administration of a test compound sample. Animals used in this invention can be wild type, transgenic, or gene knockout animals. For example, the Tg2576 mouse model, prepared and conducted as described in Hsiao et al., 1996, Science 274, 99-102, and other non-transgenic or gene knockout animals are useful to analyze in vivo inhibition of Amyloid beta peptide (Abeta) production in the presence of inhibitory test compounds. Generally, 2 to 18 month old Tg2576 mice, gene knockout mice or non-transgenic animals are administered test compounds formulated in vehicles, such as cyclodextran, phosphate buffers, hydroxypropyl methylcellulose or other suitable vehicles. One to twenty-four hours following the administration of compound, animals are sacrificed, and brains as well as cerebrospinal fluid (CSF) and plasma are removed for analysis of A-beta levels and drug or test compound concentrations (Dovey et al., 2001, Journal of Neurochemistry, 76,173-181) Beginning at time 0, animals are administered by oral gavage, or other means of delivery such as intravenous injection, an inhibitory test compound of up to 100 mg/kg in a standard, conventional formulation, such as 2% hydroxypropyl methylcellulose, 1% Tween80. A separate group of animals receive 2% hydroxypropyl methylcellulose, 1% Tween80 alone, containing no test compound, and serve as a vehicle-control group. At the end of the test period, animals are sacrificed and brain tissues, plasma or cerebrospinal fluid are collected. […] Homogenates are centrifuged at 355,000 g, 4° C. for 30 minutes. CSF or brain supernatants are then analyzed for the presence of A-beta peptide by specific sandwich ELISA assays based on ECL (Electrochemiluminescence) technology. For example, rat Abeta40 is measured using biotinylated-4G8 (Signet) as a capture antibody and Fab40 (an in-house antibody specific to the C-terminal of Abeta40) as a detection antibody. For example, 4 hours after administration of 30 mg/kg oral dose of the test compound in 2% hydroxypropyl methylcellulose, 1% Tween80 (pH2.2) to 200 g male Sprague Dawley rats, amyloid beta peptide levels are measured for reduction by X % and Y % in cerebrospinal fluid and brain, respectively, when compared to the levels measured in the vehicle-treated or control mice.
as §2
The compounds of the invention may be shown to reduce the formation and/or deposition of amyloid beta peptide in the cerebrospinal fluid (CSF) as well as in the brain of a mouse or rat at either 3 mpk, 10 mpk or 30 mpk (mpk=mg compound per kg weight of the animal) dosing concentrations after 4 h.

Chain of human recombinant BACE2 (Q9Y5Z0 63-518): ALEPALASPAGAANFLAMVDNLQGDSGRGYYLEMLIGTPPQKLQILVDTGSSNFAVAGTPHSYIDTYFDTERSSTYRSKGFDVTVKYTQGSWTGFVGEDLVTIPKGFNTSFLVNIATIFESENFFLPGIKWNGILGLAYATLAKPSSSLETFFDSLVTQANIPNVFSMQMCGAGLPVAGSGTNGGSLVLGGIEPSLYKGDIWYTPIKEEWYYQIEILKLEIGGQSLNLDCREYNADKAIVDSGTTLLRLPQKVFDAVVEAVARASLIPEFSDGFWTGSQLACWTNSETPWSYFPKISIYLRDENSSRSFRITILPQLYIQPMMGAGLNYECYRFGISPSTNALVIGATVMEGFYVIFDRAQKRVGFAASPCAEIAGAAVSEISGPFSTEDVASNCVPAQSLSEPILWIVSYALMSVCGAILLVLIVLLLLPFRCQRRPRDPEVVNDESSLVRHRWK
Chain of Recombinant Cat D (P07339 65-412): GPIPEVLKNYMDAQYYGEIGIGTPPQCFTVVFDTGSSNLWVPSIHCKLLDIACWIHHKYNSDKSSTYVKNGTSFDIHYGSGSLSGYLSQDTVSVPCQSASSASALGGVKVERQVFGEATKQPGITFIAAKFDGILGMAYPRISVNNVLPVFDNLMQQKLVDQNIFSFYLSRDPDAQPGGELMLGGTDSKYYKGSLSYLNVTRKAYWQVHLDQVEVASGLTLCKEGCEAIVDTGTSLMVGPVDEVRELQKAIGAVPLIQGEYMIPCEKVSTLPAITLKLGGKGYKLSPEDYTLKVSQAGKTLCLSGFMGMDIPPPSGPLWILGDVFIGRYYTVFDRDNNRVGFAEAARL
Chain of human recombinant BACE1 (P56817 46-501): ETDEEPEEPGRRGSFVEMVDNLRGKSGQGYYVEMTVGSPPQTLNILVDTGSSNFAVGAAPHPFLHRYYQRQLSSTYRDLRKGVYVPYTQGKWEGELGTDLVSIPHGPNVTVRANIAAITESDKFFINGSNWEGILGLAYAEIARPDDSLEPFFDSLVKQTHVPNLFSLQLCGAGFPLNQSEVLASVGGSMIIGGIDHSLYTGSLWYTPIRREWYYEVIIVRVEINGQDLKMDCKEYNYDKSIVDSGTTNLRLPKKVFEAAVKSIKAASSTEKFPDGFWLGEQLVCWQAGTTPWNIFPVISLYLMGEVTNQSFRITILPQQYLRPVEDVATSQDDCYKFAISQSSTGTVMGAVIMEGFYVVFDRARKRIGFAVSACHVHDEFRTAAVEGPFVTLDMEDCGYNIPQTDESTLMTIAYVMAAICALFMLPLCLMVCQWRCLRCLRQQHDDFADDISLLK

Turning to `N#Cc1cnc2c(Nc3ccc(F)c([C@@]4(CF)N=C(N)S[C@H]5CC54)c3)nccc2c1` (stereo in doubt) [Example 38, 8-((3-((1S,5S,6S)-3-amino-5-(fluoromethyl)-2-thia-4-azabicyclo[4.1.0]hept-3-en-5-yl)-4-fluorophenyl)amino)-1,7-naphthyridine-3-carbonitrile], in assay [1], the “% Aβ 40 reduction in rat brain at 10 mpk” value came out at 44%. Besides, the IC50 in assay [2] was 0.0144 µM; in assay [3], 0.0157 µM; in assay [4], 0.00728 µM; in assay [5] it was over 133 µM. Moreover, the “% Aβ 40 reduction in rat CSF at 10 mpk” value in assay [6] is listed as 66%.

As to `NC1=N[C@](CF)(c2cc(Nc3nccc4nc(OCc5ncco5)cnc34)ccc2F)C2C[C@@H]2S1` (stereo in doubt) [Example 56, N-(3-((1S,5S,6S)-3-amino-5-(fluoromethyl)-2-thia-4-azabicyclo[4.1.0]hept-3-en-5-yl)-4-fluorophenyl)-2-(1,3-oxazol-2-ylmethoxy)pyrido[3,4-b]pyrazin-5-amine], the “% Aβ 40 reduction in rat brain at 10 mpk” value in assay [1] is given as 32%. For the same molecule, the IC50 is 0.0135 µM in assay [2], 0.00538 µM in assay [3], 0.27 µM in assay [4] and over 400 µM in assay [5]. Moreover, in assay [6], the “% Aβ 40 reduction in rat CSF at 10 mpk” value came out at 50%.

Regarding `NC1=N[C@](CF)(c2cc(NC(=O)c3ccc(Cl)cn3)ccc2F)[C@@H]2C[C@@H]2S1` [Example 1, N-(3-((1S,5S,6S)-3-amino-5-(fluoromethyl)-2-thia-4-azabicyclo[4.1.0]hept-3-en-5-yl)-4-fluorophenyl)-5-chloro-2-pyridinecarboxamide], the “% Aβ 40 reduction in rat brain at 10 mpk” value in assay [1] was 28%. Besides, the IC50 in assay [2] was determined as 0.00871 µM; in assay [3], 0.00551 µM; in assay [4], 0.0022 µM; in assay [5], 74.5 µM. The “% Aβ 40 reduction in rat CSF at 10 mpk” value in assay [6] is listed as 58%.

Regarding `N#Cc1ccc(C(=O)Nc2ccc(F)c([C@@]3(CF)N=C(N)S[C@H]4C[C@H]43)c2)nc1` [Example 2, N-(3-((1S,5S,6S)-3-amino-5-(fluoromethyl)-2-thia-4-azabicyclo[4.1.0]hept-3-en-5-yl)-4-fluorophenyl)-5-cyano-2-pyridinecarboxamide], the “% Aβ 40 reduction in rat brain at 10 mpk” value in assay [1] is reported as 67%. Besides, the 50% inhibitory concentration (IC50) in assay [2] was 0.00437 µM; in assay [3], 0.00747 µM; in assay [4], 0.0129 µM; in assay [5], over 400 µM. In addition, the “% Aβ 40 reduction in rat CSF at 10 mpk” value in assay [6] came to 72%.

`NC1=N[C@](CF)(c2cc(NC(=O)c3ccc(Cl)cn3)cc(F)c2F)[C@@H]2C[C@@H]2S1` [Example 5, N-(3-((1S,5S,6S)-3-amino-5-(fluoromethyl)-2-thia-4-azabicyclo[4.1.0]hept-3-en-5-yl)-4,5-difluorophenyl)-5-chloro-2-pyridinecarboxamide]: the “% Aβ 40 reduction in rat brain at 10 mpk” value in assay [1] was 19%. Further, the IC50 in assay [2] turned out to be 0.0326 µM; in assay [3] it was 0.00855 µM; in assay [4], 0.00154 µM; in assay [5], 1420 µM. In assay [6], the “% Aβ 40 reduction in rat CSF at 10 mpk” value amounted to 43%.

Consider `N#Cc1ccc(C(=O)Nc2cc(F)c(F)c([C@@]3(CF)N=C(N)S[C@H]4C[C@H]43)c2)nc1` [Example 11, N-(3-((1S,5S,6S)-3-amino-5-(fluoromethyl)-2-thia-4-azabicyclo[4.1.0]hept-3-en-5-yl)-4,5-difluorophenyl)-5-cyano-2-pyridinecarboxamide], for which the “% Aβ 40 reduction in rat brain (3 mpk)” value in assay [1] (3 mpk) is 25 (3 mpk) %. Also, the IC50 in assay [2] was 0.0119 µM; in assay [3] it was 0.0104 µM; in assay [4] it was 0.0275 µM; in assay [5] it was over 400 µM. Further, in assay [6] (3 mpk), the “% Aβ 40 reduction in rat CSF (3 mpk)” value is on record as 41 (3 mpk) %.

Regarding `Cc1cc(C#N)cnc1C(=O)Nc1cc(F)c(F)c([C@@]2(CF)N=C(N)S[C@H]3C[C@H]32)c1` [Example 13, N-(3-((1S,5S,6S)-3-amino-5-(fluoromethyl)-2-thia-4-azabicyclo[4.1.0]hept-3-en-5-yl)-4,5-difluorophenyl)-5-cyano-3-methyl-2-pyridinecarboxamide], the “% Aβ 40 reduction in rat brain at 10 mpk” value in assay [1] stood at 56%. The IC50 is 0.00899 µM in assay [2], 0.00548 µM in assay [3], 0.00618 µM in assay [4] and over 400 µM in assay [5]. In addition, in assay [6], the “% Aβ 40 reduction in rat CSF at 10 mpk” value was found to be 70%.

Consider `N#Cc1cnc2c(Nc3cc(F)c(F)c([C@@]4(CF)N=C(N)S[C@H]5C[C@H]54)c3)nccc2c1` [Example 26, 8-((3-((1S,5S,6S)-3-amino-5-(fluoromethyl)-2-thia-4-azabicyclo[4.1.0]hept-3-en-5-yl)-4,5-difluorophenyl)amino)-1,7-naphthyridine-3-carbonitrile], for which the “% Aβ 40 reduction in rat brain at 10 mpk” value in assay [1] turned out to be 34%. Besides, the IC50 in assay [2] is 0.0213 µM; in assay [3], 0.0107 µM; in assay [5], over 133 µM. Further, in assay [6], the “% Aβ 40 reduction in rat CSF at 10 mpk” value amounted to 38%.

As for `N#Cc1cnc2c(Nc3cc(F)c(F)c([C@@]4(CF)N=C(N)S[C@H]5C[C@H]54)c3)ncnc2c1` [Example 28, 4-((3-((1S,5S,6S)-3-amino-5-(fluoromethyl)-2-thia-4-azabicyclo[4.1.0]hept-3-en-5-yl)-4,5-difluorophenyl)amino)pyrido[3,2-d]pyrimidine-7-carbonitrile], the “% Aβ 40 reduction in rat brain at 10 mpk” value in assay [1] turned out to be 26%. Also, the IC50 in assay [2] is 0.0204 µM; in assay [4] it was 0.0497 µM; in assay [5] it was 466 µM. In addition, the “% Aβ 40 reduction in rat CSF at 10 mpk” value in assay [6] turned out to be 42%.

Turning to `C[C@]1(c2cc(Nc3ncnc4cc(C#N)cnc34)cc(F)c2F)N=C(N)S[C@H]2C[C@H]21` [Example 36, 4-((3-((1S,5S,6S)-3-amino-5-methyl-2-thia-4-azabicyclo[4.1.0]hept-3-en-5-yl)-4,5-difluorophenyl)amino)pyrido[3,2-d]pyrimidine-7-carbonitrile], the “% Aβ 40 reduction in rat brain at 10 mpk” value in assay [1] worked out at 46%. The IC50 in assay [2] worked out at 0.00767 µM; in assay [4], 0.0562 µM; in assay [5], 250 µM. For the same molecule, the “% Aβ 40 reduction in rat CSF at 10 mpk” value in assay [6] was 74%.
